Experimental data taken from patent US20220325173A1, “RNA FLUORESCENT PROBE FOR RAPIDLY DISTINGUISHING CANCER TISSUE FROM NORMAL TISSUE BASED ON NUCLEOLAR MORPHOLOGICAL CHANGES” (SHANDONG UNIVERSITY, priority 2020, published 2022).

How the values were obtained:
[1] = test system: cytoplasmic RNA and nucleoli in SiHa cells; test: Staining live SiHa cells with CAPY-AP, confocal laser scanning microscopy; assay type: cell-based; conditions: 5 μM CAPY-AP, 30 min, 488 nm laser, green channel 500-600 nm
Method: Obtaining method: the SiHa cells are incubated with CAPY-AP for 30 min, and then the cells are irradiated with a 488 nm laser under a confocal laser scanning microscope to obtain micrographs. FIG. 1a is the image of green channel at 500-600 nm from CAPY-AP excited by the 488 nm laser. FIG. 1B is a differential interference contrast (DIC) micrograph scanned by a bright field laser. FIG. 1c is the merge image of FIG. 1a and FIG. 1b.
SiHa cells were cultured in adherent conditions in a culture media containing 10% fetal bovine serum and incubated in a 37° C. and 5% CO2 saturated humidity incubator. The culture media was replaced every 2-3 days for passage once. […]
First, DMSO solution of a 5 mM CAPY-AP was prepared as a stock solution. […] After staining, the cover glass with cells was taken out, excess probes were washed off, the cover glass with the cell growth side facing down covers a glass slide, and the staining locations, fluorescence distribution and brightness changes of the cells were observed under a confocal laser scanning microscope (the cells were irradiated with a 488 nm laser).

[2] = test system: RNA in SiHa cells; test: RNase digestion assay: staining of RNase-treated fixed SiHa cells with CAPY-AP; assay type: cell-based; conditions: RNase 25 μg/mL 2 hours, then 5 μM CAPY-AP 30 min, 488 nm laser, green channel 500-600 nm
Source text: Obtaining method: the fixed SiHa cells treated with RNase and then stained with CAPY-AP. Under the confocal laser scanning microscope, the cells are irradiated with the 488 nm laser to obtain micrographs. FIG. 2a is the image of a green channel at 500-600 nm from CAPY-AP excited by the 488 nm laser. FIG. 2b is a differential interference contrast (DIC) micrograph scanned by a bright field laser. FIG. 2c is the merge image of FIG. 2a and FIG. 2b.
Preparation of fixed cells: first, the cover glass covered with the SiHa cells prepared in Example 2 was immersed in a 4% paraformaldehyde solution for 30 min, and then 0.5%
Triton X-100 was used for permeation at room temperature for 2 min to obtain the fixed cells.
A group of the above fixed cells was taken out and digested in an incubator for 2 hours after RNase with a 25 μg/mL concentration was added, then washed with PBS 3 times and stained with a 5 μM CAPY-AP in a CO2 incubator for 30 min. The cover glass with stained cells was taken out, excess dyes were washed off, the cover glass with a cell growth side facing down covers a glass slide, and the staining locations, fluorescence distribution and brightness changes of the cells were observed under a confocal laser scanning microscope (the cells were irradiated with a 488 nm laser) and recorded.

[3] = test system: cytoplasmic RNA and nucleoli in human mammary cancer tissue and normal mammary tissue; test: Fluorescence staining of frozen sections of human mammary cancer tissue and its adjacent normal tissue
Source text: Obtaining method: after the frozen sections of human mammary cancer tissue and its adjacent normal tissue are stained with CAPY-AP and Hoechst 33342, the tissue is irradiated with 488 nm and 405 nm lasers respectively under the confocal laser scanning microscope, and superposition images of two channels (blue channel: 420-450 nm, green channel: 500-600 nm) are obtained. The frozen sections of the same tissue are stained with H&E to obtain H&E staining images. Amongst, the enlarged images come from two box regions of fluorescent staining images of mammary cancer tissue.
(§1) The frozen sections of the mammary cancer tissue and its adjacent normal tissue from intraoperative pathological samples of breast cancer patients (Pathology No. 57977.18) were obtained from the department of pathology, Qilu Hospital of Shandong University. In order to stain, the frozen sections were immersed into a 10% EtOH PBS buffer solution with a 10 μM CAPY-AP and a 10 μM Hoechst 33342 for 10 min, and then observed under a confocal laser scanning microscope (the tissue was irradiated with 488 nm and 405 nm lasers respectively) to obtain fluorescence images. The fluorescence images were compared with the corresponding H&E images.
as §1, with “60551.18)” for “57977.18)”
as §1, with “61864.18)” for “57977.18)”

[4] = 10 μM CAPY-AP with 10 μM Hoechst 33342, 10% EtOH PBS, 10 min, 488 nm and 405 nm lasers

CCn1c2ccccc2c2cc(/C=C/c3cc[n+](CCCN)cc3)ccc21 [CAPY-AP, (E)-1-(3-aminopropyl)-4-(2-(9-ethyl-9H-carbazol-3-yl)vinyl)pyridine-1-ium dibromide]
staining locations and fluorescence distribution in live SiHa cells (FIG. 1) [1]: obvious green light distribution in cytoplasmic and nucleolar areas | fluorescence of fixed SiHa cells after RNase treatment (FIG. 2) [2]: fluorescence in the nucleoli and cytoplasm is almost invisible | fluorescence distribution in frozen sections, Pathology No. 57977.18 (FIG. 3) [3, 4]: obvious green light distribution in cytoplasmic and nucleolar areas, while no fluorescence exists in extracellular matrices | imaging of cytoplasmic RNA and nucleoli in frozen sections, Pathology No. 60551.18 (FIG. 4) [3, 4]: can specifically image the cytoplasmic RNA and nucleoli in the frozen sections of the human mammary pathological tissue | imaging of cytoplasmic RNA and nucleoli in frozen sections, Pathology No. 61864.18 (FIG. 5) [3, 4]: can specifically image the cytoplasmic RNA and nucleoli in the frozen sections of the human mammary pathological tissue | imaging of cytoplasmic RNA and nucleoli in frozen sections, summary of FIG. 3, FIG. 4 and FIG. 5 ([3]; three pathology samples together, CAPY-AP and Hoechst 33342): can specifically image the cytoplasmic RNA and nucleoli in frozen sections of human mammary pathological tissue
